# In patent US8022061B2, “N-aryl pyrazole compounds, compositions, and methods for their use” (Amgen Inc., priority 2006, dated 2011):
# How the values were obtained:
# [1] = test system: C57B6 mice; assay: Glucose lowering effect after oral glucose challenge in C57B6 mice; format: in vivo; conditions: male C57B6 mice, p.o. 30 minutes before oral glucose 3 g/kg; blood glucose before, 20 and 50 minutes after challenge; relative to control group
# Method: The following example describes the glucose lowering effect of compounds observed in vivo.
# Male C57B6 mice were placed into control and treatment groups having similar averages of body weights. Then, animals were dosed with vehicle (control group) or test article (5 ml/kg, p.o.). Thirty minutes after dosing, glucose (3 g/kg) was orally administered in each animal. Blood samples were collected just before, 20 minutes and 50 minutes after glucose challenge and glucose concentrations in the samples was assessed. The values in Table 2 represent the observed % AUC reduction of blood glucose in the treated animals relative to the control group.
# [2] = test system: ob/ob mice; assay: Increase of circulating insulin concentrations in treated ob/ob mice; format: in vivo; conditions: male ob/ob mice, 10 minutes after dosing, relative to control group
# Method: The results presented below exemplify that administration of the compounds as provided herein to an art-recognized animal model of human diabetes can lead to increased circulating insulin concentrations in the animal model.
# Male ob/ob mice were weighed and bled from tail vein, and blood glucose levels were determined with a glucometer. Animals were placed into control and treatment groups having similar averages of glucose levels and body weights. In the morning of the following day, animals were dosed with vehicle (control group) or test article (5 ml/kg, p.o.). Blood samples were collected just before and 10 minutes after dosing, and the samples were assayed for insulin and glucose concentrations.
# Table 1 provides exemplary data showing the increase of circulating insulin concentrations (expressed as ng/ml) in treated mice relative to control group at 10 minutes after dosing the treated mice. Concentrations of the exemplary compound tested in the mice are provided in the righthand column.
SMILES,Increase in Insulin ([2]; dose 10 mg/kg p.o.),further results
CCOCc1c(C(=O)NCc2cncn2C)cnn1-c1ncc(C)c(NC2CCCCC2)n1 [1-[4-(Cyclohexylamino)-5-methylpyrimidin-2-yl]-5-(ethoxymethyl)-N-[(1-methyl-1H-imidazol-5-yl)methyl]-1H-pyrazole-4-carboxamide],,% AUC reduction in glucose levels [1]: 42%
CCCCc1c(C(=O)NCc2ccncc2)cnn1-c1ncc(C)c(-c2cccs2)n1 [5-Butyl-1-[5-methyl-4-(2-thienyl)pyrimidin-2-yl]-N-(pyridin-4-ylmethyl)-1H-pyrazole-4-carboxamide],,Increase in Insulin ([2]; dose 30 mg/kg p.o.): 4.1 ng/mL
CCCCc1c(C(=O)NCc2c(C)ncn2CC(N)=O)cnn1-c1ncc(C)c(-c2cccs2)n1 [N-{[1-(2-Amino-2-oxoethyl)-4-methyl-1H-imidazol-5-yl]methyl}-5-butyl-1-[5-methyl-4-(2-thienyl)pyrimidin-2-yl]-1H-pyrazole-4-carboxamide],4 ng/mL,
"COCc1c(C(=O)NCc2cnc3ccccn23)cnn1-c1ncc(C)c(-c2cccs2)n1 [N-(Imidazo[1,2-a]pyridin-3-ylmethyl)-5-(methoxymethyl)-1-[5-methyl-4-(2-thienyl)pyrimidin-2-yl]-1H-pyrazole-4-carboxamide]",4.4 ng/mL,
CCCCc1c(C(=O)NC(CO)c2cncn2C)cnn1-c1ncc(C)c(-c2cccs2)n1 (centres unmarked) [5-Butyl-N-[2-hydroxy-1-(1-methyl-1H-imidazol-5-yl)ethyl]-1-[5-methyl-4-(2-thienyl)pyrimidin-2-yl]-1H-pyrazole-4-carboxamide],5.2 ng/mL,
CCCCc1c(C(=O)Nc2cccc3ncn(C)c23)cnn1-c1ncc(C)c(-c2cccs2)n1 [5-Butyl-N-(1-methyl-1H-benzo[d]imidazol-7-yl)-1-(5-methyl-4-(thiophen-2-yl)pyrimidin-2-yl)-1H-pyrazole-4-carboxamide],4.3 ng/mL,
"CCCc1c(C(=O)NC2CCCc3cnccc32)cnn1-c1ncc(C)c(-c2cccs2)n1 (centres unmarked) [1-[5-Methyl-4-(2-thienyl)pyrimidin-2-yl]-5-propyl-N-(5,6,7,8-tetrahydroisoquinolin-5-yl)-1H-pyrazole-4-carboxamide]",8.8 ng/mL,
CCCCc1c(C(=O)NC(CC)c2ccncc2)cnn1-c1ncc(C)c(-c2cccs2)n1 (centres unmarked) [5-Butyl-1-[5-methyl-4-(2-thienyl)pyrimidin-2-yl]-N-(1-pyridin-4-ylpropyl)-1H-pyrazole-4-carboxamide],3.1 ng/mL,
CCCCc1c(C(=O)NCCn2ccnc2)cnn1-c1ncc(C)c(-c2cccs2)n1 [5-Butyl-N-[2-(1H-imidazol-1-yl)ethyl]-1-[5-methyl-4-(2-thienyl)pyrimidin-2-yl]-1H-pyrazole-4-carboxamide],2.9 ng/mL,
CCCCc1c(C(=O)N[C@@H](Cc2c[nH]cn2)C(=O)O)cnn1-c1ncc(C)c(-c2cccs2)n1 [N-({5-Butyl-1-[5-methyl-4-(2-thienyl)pyrimidin-2-yl]-1H-pyrazol-4-yl}carbonyl)-L-histidine],4.5 ng/mL,
CCCc1c(C(=O)NCc2cncn2C)cnn1-c1ncc(C)c(-c2cccs2)n1 [N-[(1-Methyl-1H-imidazol-5-yl)methyl]-1-[5-methyl-4-(2-thienyl)pyrimidin-2-yl]-5-propyl-1H-pyrazole-4-carboxamide],,Increase in Insulin ([2]; dose 30 mg/kg p.o.): 28.5 ng/mL
CCCCc1c(C(=O)NCc2cncn2CC(=O)O)cnn1-c1ncc(C)c(-c2cccs2)n1 [(5-{[({5-Butyl-1-[5-methyl-4-(2-thienyl)pyrimidin-2-yl]-1H-pyrazol-4-yl}carbonyl)amino]methyl}-1H-imidazol-1-yl)acetic acid],3.8 ng/mL,
CCCc1c(C(=O)NC(CO)c2cncn2C)cnn1-c1ncc(C)c(-c2cccs2)n1 (centres unmarked) [N-[2-Hydroxy-1-(1-methyl-1H-imidazol-5-yl)ethyl]-1-[5-methyl-4-(2-thienyl)pyrimidin-2-yl]-5-propyl-1H-pyrazole-4-carboxamide],3.1 ng/mL,
CCOCc1c(C(=O)NC(C)c2ccncc2)cnn1-c1ncc(C)c(-c2cccs2)n1 (centres unmarked) [5-(Ethoxymethyl)-1-[5-methyl-4-(2-thienyl)pyrimidin-2-yl]-N-(1-pyridin-4-ylethyl)-1H-pyrazole-4-carboxamide],6.7 ng/mL,
CCCc1c(C(=O)NCCc2cncn2C)cnn1-c1ncc(C)c(-c2cccs2)n1 [N-[2-(1-Methyl-1H-imidazol-5-yl)ethyl]-1-[5-methyl-4-(2-thienyl)pyrimidin-2-yl]-5-propyl-1H-pyrazole-4-carboxamide],9.5 ng/mL,
CCCCc1c(C(=O)NCc2c(C)ncn2CC(=O)O)cnn1-c1ncc(Br)c(NC2CCC2)n1 [(5-{[({1-[5-Bromo-4-(cyclobutylamino)pyrimidin-2-yl]-5-butyl-1H-pyrazol-4-yl}carbonyl)amino]methyl}-4-methyl-1H-imidazol-1-yl)acetic acid],1.7 ng/mL,
"CCCCc1c(C(=O)NCc2cnc3ccccn23)cnn1-c1ncc(Br)c(NC2CCC2)n1 [1-[5-Bromo-4-(cyclobutylamino)pyrimidin-2-yl]-5-butyl-N-(imidazo[1,2-a]pyridin-3-ylmethyl)-1H-pyrazole-4-carboxamide]",7.2 ng/mL,
CCCCc1c(C(=O)NCCn2cncc2C(=O)O)cnn1-c1ncc(C)c(-c2cccs2)n1 [1-{2-[({5-Butyl-1-[5-methyl-4-(2-thienyl)pyrimidin-2-yl]-1H-pyrazol-4-yl}carbonyl)amino]ethyl}-1H-imidazole-5-carboxylic acid],6.1 ng/mL,
"CCCCc1c(C(=O)NC2CCCn3cncc32)cnn1-c1ncc(C)c(-c2cccs2)n1 (centres unmarked) [5-Butyl-1-[5-methyl-4-(2-thienyl)pyrimidin-2-yl]-N-(5,6,7,8-tetrahydroimidazo[1,5-a]pyridin-8-yl)-1H-pyrazole-4-carboxamide]",,Increase in Insulin ([2]; dose 3 mg/kg p.o.): 1.4 ng/mL
CCCCc1c(C(=O)Nc2cccc3nc[nH]c23)cnn1-c1ncc(C)c(-c2cccs2)n1 [N-1H-Benzimidazol-7-yl-5-butyl-1-[5-methyl-4-(2-thienyl)pyrimidin-2-yl]-1H-pyrazole-4-carboxamide],0.9 ng/mL,
"CCCCc1c(C(=O)NCc2cnc3ccccn23)cnn1-c1ncc(C)c(-c2cccs2)n1 [5-Butyl-N-(imidazo[1,2-a]pyridin-3-ylmethyl)-1-[5-methyl-4-(2-thienyl)pyrimidin-2-yl]-1H-pyrazole-4-carboxamide]",8.5 ng/mL,
CCCCc1c(C(=O)NCc2cncn2CC(=O)OC)cnn1-c1ncc(C)c(-c2cccs2)n1 [Methyl (5-{[({5-butyl-1-[5-methyl-4-(2-thienyl)pyrimidin-2-yl]-1H-pyrazol-4-yl}carbonyl)amino]methyl}-1H-imidazol-1-yl)acetate],4.3 ng/mL,
CCCCc1c(C(=O)NC(CO)c2ccncc2)cnn1-c1ncc(C)c(-c2cccs2)n1 (centres unmarked) [5-Butyl-N-(2-hydroxy-1-pyridin-4-ylethyl)-1-[5-methyl-4-(2-thienyl)pyrimidin-2-yl]-1H-pyrazole-4-carboxamide],4.3 ng/mL,
CCCCc1c(C(=O)NCc2c(C)ncn2CC(=O)N(C)C)cnn1-c1ncc(C)c(-c2cccs2)n1 [5-Butyl-N-({1-[2-(dimethylamino)-2-oxoethyl]-4-methyl-1H-imidazol-5-yl}methyl)-1-[5-methyl-4-(2-thienyl)pyrimidin-2-yl]-1H-pyrazole-4-carboxamide],4.7 ng/mL,
CCCCc1c(C(=O)NCCn2cncc2C(=O)OC)cnn1-c1ncc(C)c(-c2cccs2)n1 [Methyl 1-{2-[({5-butyl-1-[5-methyl-4-(2-thienyl)pyrimidin-2-yl]-1H-pyrazol-4-yl}carbonyl)amino]ethyl}-1H-imidazole-5-carboxylate],6.6 ng/mL,
CCCCc1c(C(=O)NCc2c(C)ncn2CC(=O)NC)cnn1-c1ncc(C)c(-c2cccs2)n1 [5-Butyl-N-({4-methyl-1-[2-(methylamino)-2-oxoethyl]-1H-imidazol-5-yl}methyl)-1-[5-methyl-4-(2-thienyl)pyrimidin-2-yl]-1H-pyrazole-4-carboxamide],9 ng/mL,
CCCCc1c(C(=O)NC(C)c2cncn2C)cnn1-c1ncc(C)c(-c2cccs2)n1 (centres unmarked) [5-Butyl-N-[1-(1-methyl-1H-imidazol-5-yl)ethyl]-1-[5-methyl-4-(2-thienyl)pyrimidin-2-yl]-1H-pyrazole-4-carboxamide],6.4 ng/mL,
"CCCCc1c(C(=O)NC2CCn3cncc32)cnn1-c1ncc(C)c(-c2cccs2)n1 (centres unmarked) [5-Butyl-N-(6,7-dihydro-5H-pyrrolo[1,2-c]imidazol-7-yl)-1-[5-methyl-4-(2-thienyl)pyrimidin-2-yl]-1H-pyrazole-4-carboxamide]",2.2 ng/mL,
CCCCc1c(C(=O)NC(C)(C)c2ccncc2)cnn1-c1ncc(C)c(-c2cccs2)n1 [5-Butyl-N-(1-methyl-1-pyridin-4-ylethyl)-1-[5-methyl-4-(2-thienyl)pyrimidin-2-yl]-1H-pyrazole-4-carboxamide],,Increase in Insulin ([2]; dose 30 mg/kg p.o.): 4.6 ng/mL
